From patent US9969743B2, “Urea and amide derivatives of aminoalkylpiperazines and use thereof” (Southern Research Institute, priority 2012, dated 2018)

Assays:
[1] = target: human D2 dopamine receptors (HEK cells) (Homo sapiens (Human), UniProt P14416); assay: Whole cell adenylyl cyclase assay, D2; format: cell-based; settings: inhibition of forskolin (100 μM) stimulated cAMP, normalized to quinpirole; conc >10× Ki, per compound in Conc (nM); mean ± S.E.M.
Procedure: Functional Activity. Whole cell adenylyl cyclase assay. The intrinsic activity of the compounds was evaluated by determining their ability to inhibit forskolin-dependent (100 μM) stimulation of adenylyl cyclase activity using a whole cell assay. A whole cell-cyclic AMP accumulation assay was performed with stably transfected HEK cells expressing human D2 or D3 dopamine receptors. This assay is an adaptation of an earlier published method (Su et al., Cyclic Nucleotide Res. 1976, 2, 257-285). Details regarding this method have been published (Chu, W. et al. Bioorg. Med. Chem. 2005, 13, 77-87; Taylor, M. et al. Synapse 2010, 64, 251-266). Confluent (60-80%) HEK cells transfected with recombinant D2-like dopamine receptors were grown in DMEM/10% fetal calf serum containing geneticin in […]. The endogenous ATP pool is radioactively labeled by preincubating the cells in serum-free DMEM/25 mM Hepes medium containing 2 μCi/mL of [2,8-^3H]-adenine (20-Ci/mmol) in a 5% CO2 incubator at 37° C. for 75 min. The radioactive medium was removed by aspiration. Serum-free DMEM (5.6 mL) containing 25 mM HEPES, pH 7.4, and 0.1 mM of the phosphodiesterase inhibitor isobutylmethylxanthine was added to the flask. A 400-μL aliquot of cells was removed and added to 50 μL of forskolin (100 μM) and 50 μL of test drug or quinpirole in DMEM-HEPES. The cells were incubated for 20 min at 37° C. (vortexing every 5 min). The reaction was terminated by the addition of 0.5 mL of 10% trichloroacetic acid (w/v) containing 1.0 mM unlabeled cyclic AMP as a recovery standard. Both the [^3H]-cyclic AMP and the [^3H]-ATP fractions were collected following separation using columns of Dowex AG-50W-X4 and alumina. The final yield of [^3H]-cyclic AMP is corrected for column recovery of unlabeled cyclic AMP determined spectrophotometrically (OD259). The results are reported as percent conversion of [^3H]-ATP into [^3H]-cyclic AMP. The values for the percent inhibition are reported as the actual percent of inhibition of the ^3H-cAMP accumulation relative to the assay performed in the absence of a test compound, minus basal activity. […] The percent maximum response is the value for the inhibition normalized to the value for the full agonist quinpirole.

[2] = target: human D3 dopamine receptor (Homo sapiens (Human), UniProt P35462); assay: Radioligand binding (125I-IABN competition), D3 dopamine receptor; settings: for Ki: 125I-IABN competition, membranes of stably transfected HEK cells, 37° C. 60 min, Cheng and Prusoff; for D2/D3 (D3 selectivity ratio, D2 Ki/D3 Ki): calculated from binding Ki values
Procedure: (§1) Binding Affinity. The affinities of the target compounds were determined using radioligand binding experiments.
(§2) Competition curves were modeled for a single site. Data from competition dose-response curves were analyzed using Tablecurve program (Jandel). IC50 values were converted to equilibrium dissociation constants (Ki values) using the Cheng and Prusoff correction.

[3] = target: human D2-long dopamine receptor (Homo sapiens (Human), UniProt P14416); assay: Radioligand binding (125I-IABN competition), D2-long dopamine receptor; settings: membranes of stably transfected HEK cells, 37° C. 60 min, Cheng and Prusoff
Procedure: as §1, §2

human D2 dopamine receptors (HEK cells), sequence (P14416 whole entry): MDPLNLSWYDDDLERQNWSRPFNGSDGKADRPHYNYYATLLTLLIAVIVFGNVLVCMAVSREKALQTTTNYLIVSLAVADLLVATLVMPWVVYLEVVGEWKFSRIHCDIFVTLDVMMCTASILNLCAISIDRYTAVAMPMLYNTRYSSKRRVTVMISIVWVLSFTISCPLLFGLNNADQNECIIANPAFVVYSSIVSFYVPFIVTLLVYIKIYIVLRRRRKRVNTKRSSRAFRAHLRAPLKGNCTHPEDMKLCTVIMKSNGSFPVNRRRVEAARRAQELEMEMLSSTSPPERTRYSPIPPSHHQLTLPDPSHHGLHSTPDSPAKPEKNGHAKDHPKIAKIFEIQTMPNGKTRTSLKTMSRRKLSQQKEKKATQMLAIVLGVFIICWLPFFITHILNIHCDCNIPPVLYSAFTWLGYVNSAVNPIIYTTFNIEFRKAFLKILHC
human D2-long dopamine receptor, sequence (P14416 whole entry): as above
human D3 dopamine receptor, sequence (P35462 whole entry): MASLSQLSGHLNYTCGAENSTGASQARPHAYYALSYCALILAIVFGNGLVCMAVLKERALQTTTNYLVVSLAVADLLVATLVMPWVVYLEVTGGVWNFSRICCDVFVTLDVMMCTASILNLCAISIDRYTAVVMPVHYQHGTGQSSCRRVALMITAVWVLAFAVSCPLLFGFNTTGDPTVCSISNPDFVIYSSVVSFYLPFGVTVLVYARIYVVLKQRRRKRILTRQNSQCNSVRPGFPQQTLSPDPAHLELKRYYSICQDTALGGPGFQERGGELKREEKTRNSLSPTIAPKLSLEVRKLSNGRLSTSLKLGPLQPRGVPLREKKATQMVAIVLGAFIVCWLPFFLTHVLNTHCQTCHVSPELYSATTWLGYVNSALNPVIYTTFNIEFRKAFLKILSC

CC(C)(C)c1nc(N2CCN(CCCCNC(=O)N3CCN(c4ccccc4)CC3)CC2)c2ccccc2n1 [Compound 13, N-(4-(4-(2-(tert-Butyl)quinazolin-4-yl)piperazin-1-yl)butyl)-4-phenylpiperazine-1-carboxamide]
D2 Cyclase % Inhibition Normalized [1]: Insoluble

CC(C)(C)c1nc(N2CCN(CCCCNC(=O)N3CCC(c4ccccc4)CC3)CC2)cc(C(F)(F)F)n1 [Compound 48, N-(4-(4-(2-(tert-Butyl)-6-(trifluoromethyl)pyrimidin-4-yl)piperazin-1-yl)butyl)-4-phenylpiperidine-1-carboxamide]
D2 Cyclase % Inhibition Normalized [1]: Insoluble

CC(C)(C)c1cc(N2CCN(CCCCNC(=O)N3CCc4c([nH]c5ccccc45)C3)CC2)nc(C(C)(C)C)n1 [Compound 56, N-(4-(4-(2,6-Di-tert-butylpyrimidin-4-yl)piperazin-1yl)butyl)-1,3,4,9-tetrahydro-2H-pyrido[3,4-b]indole-2-carboxamide]
Ki [2]: 9.5 ± 1.7 nM
D2/D3 (D3 selectivity ratio, D2 Ki/D3 Ki) [2]: 33
Ki [3]: 308 ± 29.9 nM

CC(C)(C)c1cc(N2CCN(CCCCNC(=O)N3CCc4c([nH]c5ccccc45)C3)CC2)cc(C(C)(C)C)c1 [Compound 97, N-(4-(4-(3,5-Di-tert-butylphenyl)piperazin-1-yl)butyl)-1,3,4,9-tetrahydro-2H-pyrido[3,4-b]indole-2-carboxamide]
Ki [2]: 245 ± 46.4 nM
D2/D3 (D3 selectivity ratio, D2 Ki/D3 Ki) [2]: 10
Ki [3]: 2440 ± 175 nM

CC(C)(C)c1nc(C2CC2)cc(N2CCN(CCCCNC(=O)N3CCc4c([nH]c5ccccc45)C3)CC2)n1 [Compound 101, N-(4-(4-(2-(tert-Butyl)-6-cyclopropylpyrimidin-4-yl)piperazin-1-yl)butyl)-1,3,4,9-tetrahydro-2H-pyrido[3,4-b]indole-2-carboxamide]
Ki [2]: 57.1 ± 3.5 nM
Ki [3]: 789 ± 45.7 nM

CC(C)(C)c1nc(N2CCN(CCCCNC(=O)c3cn4ccncc4n3)CC2)cc(C(F)(F)F)n1 [Compound 115, N-(4-(4-(2-(tert-Butyl)-6-(trifluoromethyl)pyrimidin-4-yl)piperazin-1-yl)butyl)imidazo[1,2-a]pyrazine-2-carboxamide]
D2 Cyclase % Inhibition Normalized [1]: Insoluble

CC(C)(C)c1nc(N2CCN(CCCCNC(=O)c3cn4nc(Cl)ccc4n3)CC2)cc(C(F)(F)F)n1 [Compound 116, N-(4-(4-(2-(tert-Butyl)-6-(trifluoromethyl)pyrimidin-4-yl)piperazin-1-yl)butyl)-6-chloroimidazo[1,2-b]pyridazine-2-carboxamide]
D2 Cyclase % Inhibition Normalized [1]: Insoluble
